Results on six molecules are retold here after PMC1586004, “Dibenzazecine compounds with a novel dopamine/5HT2A receptor profile and 3D-QSAR analysis” (BMC Pharmacology, 2006).

Usually IC50 stands for the midpoint of a concentration-inhibition curve.

Marks after values point to notes of the source that are not given here.

In experiment [1] the target is T1, hD1 receptor (Homo sapiens, UniProt P21728).
T1 construct: expressed in transfected cells
Nature of the experiment: Radioligand competition binding at hD1 receptors (cell membranes). The following applies: for higher affinities for D1-like than for D2-like receptors: binding (table 2). (In general: In a radioligand displacement assay an active substance lowers the binding of a labelled ligand.)

The next experiment has as its target T2, hD3 receptor (Homo sapiens, UniProt P35462).
T2 construct: expressed in transfected cells
Nature of the experiment: Radioligand competition binding at hD3 receptors (cell membranes). The following applies: read-out: pKi hD3 (converted).

Another experiment deals with h5HT2A receptor (Homo sapiens, UniProt P28223). Nature of the experiment: Radioligand competition binding at h5HT2A receptors (cell membranes). The following applies: read-out: pKi h5HT2A (converted).
For experiment [2], the target named is T1, hD1 receptor. The conditions noted are these: radioligand binding literature data; cited from earlier work.
The target in experiment [3] is T3, hD2L receptor (Homo sapiens, UniProt P14416).
T3 construct: expressed in transfected cells
The following applies: radioligand binding literature data; cited from earlier work.

For experiment [4], the target named is T3, hD2L receptor. Nature of the experiment: Intracellular [Ca2+] fluorescence assay, HEK293-hD2L cells. Format: cell-based.
Experiment [5] concerns the target T1, hD1 receptor. Nature of the experiment: Intracellular [Ca2+] fluorescence assay, HEK293-hD1 cells. Format: cell-based.
Experiment [6] deals with T1, hD1 receptor. Nature of the experiment: [35S]-GTPγS binding in HEK293-hD1 cell membranes. Format: biochemical. For orientation: Binding of GTPγS marks nucleotide exchange on a G protein.
Protocol: (§1) For [^35S]-GTPγS-binding, cell pellets were resuspended in 10 mM Tris-HCl/1 mM EDTA, pH 7.4, homogenized in a glass-teflon homogenizer and centrifuged for 15 min (40,000 × g, 4°C). Supernatant was discarded, and pellet was washed twice with ice-cold Tris-HCl/EDTA buffer and finally resuspended in 50 mM Tris-HCl, 4 mM MgCl2, 1 mM EDTA, 250 mM sucrose, pH 7.4, and stored at -80°C. The protein content was determined according to the Bradford method [30] with gamma immunoglobulin as standard.
The next experiment concerns the target T4, hD5 receptor (Homo sapiens, UniProt P21918).
T4 construct: expressed in transfected cells
Nature of the experiment: Radioligand competition binding at hD5 receptors (cell membranes). The conditions noted are these: read-out: pKi hD5 (converted).

Experiment [7] has as its target T1, hD1 receptor. Nature of the experiment: Intracellular [cAMP], CRE-luciferase reporter gene assay, HEK293-hD1 cells. Format: cell-based.
The target of experiment [8] is T3, hD2L receptor. Nature of the experiment: Intracellular [cAMP], CRE-luciferase reporter gene assay, HEK293-hD2L cells. Format: cell-based. The following applies: read-out: pKi app [cAMP]i hD2L (converted). (In general: A reporter such as luciferase makes a cellular process visible.)
The target of experiment [9] is T3, hD2L receptor. Nature of the experiment: Radioligand competition binding at hD2L receptors (cell membranes). The conditions noted are these: read-out: pKi hD2L (converted).
The next experiment has as its target T5, hD4.4 receptor (Homo sapiens, UniProt P21917).
T5 sequence (P21917 1-419): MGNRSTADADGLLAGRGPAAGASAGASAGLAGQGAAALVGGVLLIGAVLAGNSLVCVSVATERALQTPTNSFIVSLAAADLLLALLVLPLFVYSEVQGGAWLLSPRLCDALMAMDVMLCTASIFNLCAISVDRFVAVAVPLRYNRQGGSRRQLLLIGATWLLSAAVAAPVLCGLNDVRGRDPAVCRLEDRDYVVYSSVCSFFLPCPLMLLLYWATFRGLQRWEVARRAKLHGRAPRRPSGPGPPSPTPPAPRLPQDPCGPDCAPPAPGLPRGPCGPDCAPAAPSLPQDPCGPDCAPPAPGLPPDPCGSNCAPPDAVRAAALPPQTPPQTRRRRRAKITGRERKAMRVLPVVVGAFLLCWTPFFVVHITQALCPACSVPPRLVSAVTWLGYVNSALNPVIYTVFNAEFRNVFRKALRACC
Nature of the experiment: Radioligand competition binding at hD4.4 receptors (cell membranes). The conditions noted are these: read-out: pKi hD4.4 (converted).

Experiment [10] deals with T3, hD2L receptor. Nature of the experiment: [35S]-GTPγS binding in HEK293-hD2L cell membranes. The conditions noted are these: read-out: pKi app [35S]-GTPγS binding hD2L (converted). Format: biochemical.
Protocol: as §1
Where [11] appears, read: Schild and Clark analyses, Ca2+ assay.

T3 sequence (P14416 whole entry): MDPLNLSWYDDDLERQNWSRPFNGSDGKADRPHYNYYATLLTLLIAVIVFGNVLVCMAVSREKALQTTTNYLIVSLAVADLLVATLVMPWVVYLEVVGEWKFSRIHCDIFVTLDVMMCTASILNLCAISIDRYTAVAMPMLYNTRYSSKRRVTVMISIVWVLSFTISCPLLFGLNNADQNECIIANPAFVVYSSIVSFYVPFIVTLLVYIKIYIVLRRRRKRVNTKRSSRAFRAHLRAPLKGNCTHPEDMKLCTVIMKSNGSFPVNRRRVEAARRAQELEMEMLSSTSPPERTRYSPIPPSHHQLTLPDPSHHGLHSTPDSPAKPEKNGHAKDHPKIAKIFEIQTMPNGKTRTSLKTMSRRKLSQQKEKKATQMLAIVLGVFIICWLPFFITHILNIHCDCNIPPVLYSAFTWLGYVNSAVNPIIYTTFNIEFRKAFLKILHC
Sequence of h5HT2A receptor (P28223 whole entry): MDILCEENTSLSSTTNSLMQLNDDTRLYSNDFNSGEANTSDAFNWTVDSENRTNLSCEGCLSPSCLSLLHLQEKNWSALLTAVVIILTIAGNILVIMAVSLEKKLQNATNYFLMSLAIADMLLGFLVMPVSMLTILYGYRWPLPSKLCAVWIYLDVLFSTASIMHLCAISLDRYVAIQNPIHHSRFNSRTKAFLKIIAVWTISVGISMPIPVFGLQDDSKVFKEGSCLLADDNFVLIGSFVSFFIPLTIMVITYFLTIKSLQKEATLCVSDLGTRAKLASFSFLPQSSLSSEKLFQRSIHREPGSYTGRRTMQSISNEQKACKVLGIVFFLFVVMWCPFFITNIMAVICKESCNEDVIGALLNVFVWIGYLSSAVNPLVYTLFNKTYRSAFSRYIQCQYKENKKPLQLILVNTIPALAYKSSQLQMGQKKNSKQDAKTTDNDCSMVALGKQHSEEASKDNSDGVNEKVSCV
T1 sequence (P21728 whole entry): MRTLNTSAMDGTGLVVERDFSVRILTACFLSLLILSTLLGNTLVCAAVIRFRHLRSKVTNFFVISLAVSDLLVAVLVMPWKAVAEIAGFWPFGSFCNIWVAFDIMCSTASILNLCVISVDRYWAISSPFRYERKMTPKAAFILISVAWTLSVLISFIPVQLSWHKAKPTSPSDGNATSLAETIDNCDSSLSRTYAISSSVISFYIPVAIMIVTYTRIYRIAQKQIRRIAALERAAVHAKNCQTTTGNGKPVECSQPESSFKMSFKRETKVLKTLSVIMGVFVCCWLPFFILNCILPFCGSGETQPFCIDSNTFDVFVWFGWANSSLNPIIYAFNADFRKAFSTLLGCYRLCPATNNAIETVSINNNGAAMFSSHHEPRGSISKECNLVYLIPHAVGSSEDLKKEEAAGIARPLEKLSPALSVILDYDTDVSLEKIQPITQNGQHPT
T2 sequence (P35462 whole entry): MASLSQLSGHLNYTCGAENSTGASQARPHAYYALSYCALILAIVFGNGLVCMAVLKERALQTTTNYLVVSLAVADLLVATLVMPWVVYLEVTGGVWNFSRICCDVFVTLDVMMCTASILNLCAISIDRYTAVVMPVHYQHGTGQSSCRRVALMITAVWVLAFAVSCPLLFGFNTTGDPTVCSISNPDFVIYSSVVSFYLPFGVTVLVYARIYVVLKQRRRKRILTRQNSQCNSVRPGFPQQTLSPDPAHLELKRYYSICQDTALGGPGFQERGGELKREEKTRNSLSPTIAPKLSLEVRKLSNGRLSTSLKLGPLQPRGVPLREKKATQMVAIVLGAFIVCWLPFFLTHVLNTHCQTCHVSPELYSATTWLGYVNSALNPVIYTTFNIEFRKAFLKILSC
T4 sequence (P21918 whole entry): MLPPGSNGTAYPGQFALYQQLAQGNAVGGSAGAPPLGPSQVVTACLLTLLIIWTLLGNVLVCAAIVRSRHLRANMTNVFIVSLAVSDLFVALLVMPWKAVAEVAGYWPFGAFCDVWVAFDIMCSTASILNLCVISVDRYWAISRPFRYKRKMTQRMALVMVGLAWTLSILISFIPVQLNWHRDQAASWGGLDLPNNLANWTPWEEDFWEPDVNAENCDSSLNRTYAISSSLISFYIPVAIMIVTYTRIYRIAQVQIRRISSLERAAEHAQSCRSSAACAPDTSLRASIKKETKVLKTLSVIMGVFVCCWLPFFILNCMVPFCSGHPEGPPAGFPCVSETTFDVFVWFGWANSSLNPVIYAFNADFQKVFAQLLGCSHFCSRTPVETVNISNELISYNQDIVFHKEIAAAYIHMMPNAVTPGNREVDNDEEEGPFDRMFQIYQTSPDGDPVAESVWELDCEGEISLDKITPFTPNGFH

For `CN1CCc2ccccc2Cc2cc(O)c(O)cc2CC1` [LE403], the “higher affinities for D1-like than for D2-like receptors” value at hD1 receptor [1] is “up to 33 fold”. Moreover, the Ki at hD3 receptor is 0.724 µM; at h5HT2A receptor it was 0.00398 µM.
As to `CN(C)CCC=C1c2ccccc2C=Nc2ccc(Cl)cc21` [RMI-81582, 2-chloro-11-(3-dimethylaminopropylidene)morphanthridine], the “Ki-D1/Ki-D2 (calculated from literature)” value on hD1 receptor [2] is given as 0.05^a). In addition, the “Ki-D2/Ki-5HT2A (calculated from literature)” value at hD2L receptor [3] is reported as 31.6^a).
On to `BrCCN1CCc2ccccc2Cc2[nH]c3ccccc3c2CC1` [AHAD11], for which the Ki on hD1 receptor [1] (read-out: pKi hD1 (converted)) is 1.51 µM.
`CN1CCc2ccccc2Cc2ccc(O)cc2CC1` [LE404]: the “higher affinities for D1-like than for D2-like receptors” value at hD1 receptor [1] is on record as “up to 33 fold”. Also, the Ki at h5HT2A receptor was 0.00162 µM. The “nature of antagonism at D2L receptors” value on hD2L receptor [4] (setting [11]) is recorded as “competitive antagonistic behaviour”. Besides, the “nature of antagonism at D1 receptors” value at hD1 receptor [5] (setting [11]) is listed as “competitive antagonistic behaviour”. Also, the “D1 preference over D2L in Ca2+ studies” value on hD1 receptor [5] (apparent functional Ki, Ca2+ (table 5)) is 3 fold.
As for `Oc1cc2c(cc1O)[C@H]1c3ccccc3CN[C@@H]1CC2` (racemic) [Dihydrexidine, reference compound], the “increase in [35S]-GTPγS binding compared with SKF38393” value at hD1 receptor [6] (membrane preparations from HEK293-hD1 cells, 1 μM GDP) is given as “significantly higher increase”.
For the molecule `CN1CCc2ccccc2Cc2[nH]c3ccccc3c2CC1` [LE300], the Ki on hD5 receptor was 0.0102 µM; on hD1 receptor [1] (0.2 nM [3H]SCH23390, Krebs-HEPES buffer pH 7.4, n = 3, read-out: Ki (Krebs-HEPES) hD1) it was 0.01 ± 0.00115 µM; at hD1 receptor [1] (0.2 nM [3H]SCH23390, TRIS-HCl pH 7.4, n = 3, read-out: Ki (TRIS-HCl) hD1), 0.00236 ± 0.00013 µM; on hD1 receptor [1] (heterologous competition, 0.2 nM [3H]SCH23390, Krebs-HEPES buffer pH 7.4, mean ± SEM, n ≥ 3, read-out: pKi hD1 (converted)), 0.0105 µM; at hD1 receptor [7] (read-out: pKi app [cAMP]i hD1 (converted)), 0.0282 µM; on hD3 receptor it was 0.331 µM. Also, the Ki on h5HT2A receptor is 0.000224 µM; at hD2L receptor [4] (read-out: pKi app [Ca2+]i hD2L (converted)), 0.0117 µM; at hD2L receptor [8] it was 0.00186 µM; on hD2L receptor [9] it was 0.0646 µM; on hD1 receptor [6] (read-out: pKi app [35S]-GTPγS binding hD1 (converted)) it was 0.0178 µM; at hD4.4 receptor, 0.347 µM. In addition, the Ki on hD2L receptor [10] is 0.00724 µM. Moreover, at hD1 receptor [1], the Ki-D1/Ki-D2 came to 0.16. For the same molecule, the “fold higher Ki using Krebs-HEPES instead of TRIS-HCl buffer, hD1” value on hD1 receptor [1] was ~ 4 fold. Further, the IC50 stood at 0.123 ± 0.0311 µM at hD1 receptor [7] (read-out: IC50 [cAMP] hD1 (antagonist)) and 0.718 ± 0.168 µM at hD1 receptor [5] (read-out: IC50 [Ca2+] hD1 (antagonist)). Moreover, the “pKi app [Ca2+]i hD1” value at hD1 receptor [5] came to 7.22 ± 0.15.
